According to patent US20210386367A1, “DEVICES AND SYSTEMS FOR GASTROINTESTINAL MICROBIOME DETECTION AND MANIPULATION” (Progenity, Inc., priority 2018, published 2021):
In brackets after ≈: the same amount, converted by molar mass. Like-named read-outs stand apart in the source and are kept apart here.

Experiments:
Clostridium spp. = assay: Agar dilution MIC, 10 clinical isolates; format: cell-based; details: for Mode: modal MIC
B. ovatus MMX 3503 = assay: Broth microdilution MIC (time-kill study); format: cell-based, Bacteroides ovatus
E. coli ATCC 35218 = assay: Time-kill assay; format: cell-based, Escherichia coli; details: 2×, 4×, 8× MIC; 2, 6, 24 hr
[1] = tested on: E. coli spontaneous mutants; assay: Broth microdilution MIC of spontaneous mutants; format: cell-based, Escherichia coli
Method: Select isolates were subcultured onto agar containing drug at the selection concentration, were identified by MALDI, and were frozen for broth microdilution MIC testing as described below.
To determine whether colonies growing on drug selection plates had elevated MIC values to the selecting antibiotic, susceptibility testing by broth microdilution was conducted on isolated mutants following methodology recommended by CLSI (1), (2), and (3) “Performance Standards for Antimicrobial Susceptibility Testing; Twenty-Eighth Informational Supplement.,” CLSI document M100-S28, 2018.
All wells in columns 2 through 12 of a standard 96-well microdilution plate (Costar 3795) were filled with 150 μL of the appropriate diluent. Then, 300 μL of the test agents were added to the wells of column 1 of the plates at […] the highest final concentration to be tested. Serial two-fold dilutions were made across the rows through column 11 using the Biomek 2000. The wells of column 12 contained no drug and served as the growth control wells. This plate served as the “mother plate” from which selected MIC assay plates or “daughter plates” were made.
2 μL of drug solution from each well of a mother plate was added to each corresponding well of the daughter plate in a single step. A standardized inoculum of each aerobic test organism was prepared per CLSI methods to equal a 0.5 McFarland standard, followed by a dilution of 1:20 in MHB II. The plates were then inoculated with 10 μL of the diluted inoculum using the Biomek 2000 from low to high drug concentration, resulting in a final concentration of approximately 5×10^5 CFU/mL. An un-inoculated plate was incubated for the purpose of assessing solubility of the drug in the test media.
The plates for the aerobic tests were stacked 3-4 high, covered with a sterile lid on the top plate, and incubated aerobically at 35° C. for 18-20 hr. The MIC was recorded as the lowest concentration of drug that inhibited visible growth of the organism.

[2] = tested on: E. coli, Streptococcus spp., and Bacteroides spp. isolates; format: cell-based; details: across the evaluated isolates
Method: (§1) Initial values of the MIC were determined by agar dilution in accordance with guidelines from the Clinical and Laboratory Standards Institute (CLSI; (1) “Methods for Dilution Antimicrobial Susceptibility Tests for Bacteria That Grow Aerobically; Approved Standard; 11th ed.,” CLSI standard M07, 2018; (2) “Methods for Antimicrobial Susceptibility Testing of Anaerobic Bacteria; Approved Standard—Eighth Edition,” CLSI document M11-A8, 2012.).
(§2) If there were no colonies on the antibiotic selection plates, the spontaneous mutation frequency was reported as less than the frequency observed with one colony to indicate that the spontaneous mutation frequency was less than the limit of detection (one CFU). […] The mutation prevention concentration (MPC) was reported as the lowest concentration for which no mutants were selected.

[3] = tested on: E. coli (ATCC 25922, ATCC 35218, MMX 1312); assay: Spontaneous mutation frequency assay; format: cell-based, Escherichia coli; details: selection at 4× and 8× MIC, meropenem/ceftriaxone: isolates other than MMX 1312
Method: as §1
The agar plates were prepared by mixing a ratio of 1.0 mL of concentrated drug to 49.0 mL of the appropriate molten (47° C.) agar; the drug-supplemented agar was mixed, poured into 15-by-150 mm petri dishes and allowed to solidify and dry at room temperature prior to inoculation. […] Each plate was allowed to cool at room temperature for at least 1 hr.
The isolates were streaked onto the appropriate agar medium and incubated for 20 hr (aerobes) or 48 hr (Bacteroides under anaerobic conditions). Using a sterile swab, several well-isolated colonies were removed and resuspended in sterile saline at a heavy cell density. Each plate was inoculated with 0.5 mL of the cell suspension (each test concentration was inoculated in duplicate). The target inoculum for each spontaneous mutation plate was 10^9-10 CFU. In addition, a portion of the inoculum from each isolate was enumerated by making dilutions, spreading on agar and counting colonies.
Once the inoculum was absorbed into the agar, the plates were incubated at 35° C. Aerobes were examined at 24 and 48 hr, and resulting colonies were counted. Bacteroides were incubated anaerobically for 48-72 hr in the anaerobe chamber and colonies were counted.
Colony counts from plates used to enumerate the initial inoculum density and from the resulting spontaneous mutation frequency test plates were determined. The inoculum size was calculated as CFU inoculated per plate. The spontaneous mutation frequency was calculated using the counts from duplicate spontaneous mutation assay test plates as follows:
as §2

[4] = tested on: Bacteroides spp. (B. fragilis ATCC 25285, B. vulgatus, B. ovatus MMX 3503); assay: Agar dilution MIC (spontaneous mutation study; strain in conditions); format: cell-based
S. pyogenes ATCC 49399 = assay: Broth microdilution MIC (time-kill study); format: cell-based, Streptococcus pyogenes
S. pneumoniae ATCC 49619 = details: cited from earlier work
[5] = tested on: Streptococcus spp. spontaneous mutants; details: S. pneumoniae ATCC 49619; CLSI QC range shown in parentheses; cited from earlier work
[6] = 10 Clostridium spp. clinical isolates
[7] = B. ovatus MMX 3504 (so in the source)

**Q.** With `Cc1ncc([N+](=O)[O-])n1CCO` [MTZ] as the compound, how does the “% S” value (Clostridium spp.; [6]) read?
**A.** 100%

**Q.** And the MIC50 (Clostridium spp.; [6])?
**A.** 1 µg/mL (≈ 5.84 µM)

**Q.** And the MIC90 (Clostridium spp.; [6])?
**A.** 1 µg/mL (≈ 5.84 µM)

**Q.** What about the MIC range (Clostridium spp.; [6]) of the same compound?
**A.** 0.12 to 2 µg/mL

**Q.** And the Mode (Clostridium spp.; [6])?
**A.** 1 µg/mL

**Q.** For `CO[C@H]1/C=C/O[C@@]2(C)Oc3c(C)c(O)c4c(O)c(c5c(nc6cc(C)ccn65)c4c3C2=O)NC(=O)/C(C)=C\C=C\[C@H](C)[C@H](O)[C@@H](C)[C@@H](O)[C@@H](C)[C@H](OC(C)=O)[C@@H]1C` [rifaximin], which MIC50 (Clostridium spp.) is on record?
**A.** > 64 µg/mL

**Q.** What about the MIC90 (Clostridium spp.) of the same compound?
**A.** > 64 µg/mL

**Q.** And the MIC50 (Clostridium spp.; [6])?
**A.** >64 µg/mL

**Q.** What about the MIC90 (Clostridium spp.; [6]) of the same compound?
**A.** >64 µg/mL

**Q.** And the Mode (Clostridium spp.; [6])?
**A.** >64 µg/mL

**Q.** And the MIC (B. ovatus MMX 3503; [7])?
**A.** 2 µg/mL (≈ 2.54 µM)

**Q.** And the MIC (B. ovatus MMX 3503; broth microdilution)?
**A.** 1 µg/mL (≈ 1.27 µM)

**Q.** And the “time-kill kinetics outcome (bactericidal = ≥3 log reduction in CFU per mL)” value (E. coli ATCC 35218)?
**A.** bacteriostatic at 8× the MIC with regrowth at 24 hr for both 2× and 4× the MIC

**Q.** And the MIC ([1]; E. coli MMX 1312, selected on ceftriaxone 4X MIC, Colony A)?
**A.** 3 µg/mL

**Q.** And the MIC ([1]; E. coli MMX 1312, selected on ceftriaxone 4X MIC, Colony B)?
**A.** 8 µg/mL

**Q.** And the MIC ([1]; E. coli MMX 1312, selected on ceftriaxone 4X MIC, Colony C)?
**A.** 8 µg/mL

**Q.** And the MIC ([1]; E. coli MMX 1312, selected on ceftriaxone 8X MIC, Colony A)?
**A.** 3 µg/mL

**Q.** What about the MIC ([1]; E. coli MMX 1312, selected on ceftriaxone 8X MIC, Colony B) of the same compound?
**A.** 3 µg/mL

**Q.** And the MIC ([1]; E. coli MMX 1312, selected on ceftriaxone 8X MIC, Colony C)?
**A.** 3 µg/mL

**Q.** And the MIC ([1]; E. coli MMX 1312 Parent)?
**A.** 8 µg/mL

**Q.** What about the MIC ([1]; E. coli MMX 1312 Parent (Table 49)) of the same compound?
**A.** 8 µg/mL

**Q.** What about the MIC ([1]; E. coli MMX 1312 mutant selected on meropenem 4X MIC, colony A) of the same compound?
**A.** 8 µg/mL

**Q.** And the MIC ([1]; E. coli MMX 1312 mutant selected on meropenem 4X MIC, colony B)?
**A.** 8 µg/mL

**Q.** And the MIC ([1]; E. coli MMX 1312 mutant selected on meropenem 4X MIC, colony C)?
**A.** 8 µg/mL

**Q.** And the MIC ([1]; E. coli MMX 1312 mutant selected on meropenem 8X MIC, colony A)?
**A.** 8 µg/mL

**Q.** What about the MIC ([1]; E. coli MMX 1312 mutant selected on meropenem 8X MIC, colony B) of the same compound?
**A.** 8 µg/mL

**Q.** What about the MIC ([1]; E. coli MMX 1312 mutant selected on meropenem 8X MIC, colony C) of the same compound?
**A.** 4 µg/mL

**Q.** And the “broth microdilution MIC of selected colonies relative to parent strain” value ([1]; colonies selected at 4× and 8× the MIC)?
**A.** several-fold higher

**Q.** What about the MPC values [2] of the same compound?
**A.** In no instance was an MPC able to be reported

**Q.** What about the Spontaneous Mutation Frequency [3] of the same compound?
**A.** > 2.37×10^−8

**Q.** What about the Spontaneous Mutation Frequency ([3]; listed as rifampin) of the same compound?
**A.** ~10^−8

**Q.** What about the “Agar MIC” value ([4]; B. fragilis ATCC 25285) of the same compound?
**A.** 0.25 µg/mL

**Q.** What about the “Agar MIC” value ([4]; B. ovatus MMX 3503) of the same compound?
**A.** 0.5 µg/mL

**Q.** What about the “Agar MIC” value ([4]; B. vulgatus ATCC 8482) of the same compound?
**A.** 0.12 µg/mL

**Q.** And the MIC (S. pyogenes ATCC 49399; S. pyogenes ATCC 49399)?
**A.** 0.12 µg/mL (≈ 0.153 µM)

**Q.** And the MIC (S. pyogenes ATCC 49399; broth microdilution)?
**A.** 0.12 µg/mL (≈ 0.153 µM)

**Q.** With `CN[C@H](CC(C)C)C(=O)N[C@H]1C(=O)N[C@@H](CC(N)=O)C(=O)N[C@H]2C(=O)N[C@H]3C(=O)N[C@H](C(=O)N[C@H](C(=O)O)c4cc(O)cc(O)c4-c4cc3ccc4O)[C@H](O)c3ccc(c(Cl)c3)Oc3cc2cc(c3O[C@@H]2O[C@H](CO)[C@@H](O)[C@H](O)[C@H]2O[C@H]2C[C@](C)(N)[C@H](O)[C@H](C)O2)Oc2ccc(cc2Cl)[C@H]1O` [vancomycin, Vancomycin] as the compound, how does the “CLSI QC range (MIC)” value (S. pneumoniae ATCC 49619) read?
**A.** (0.12-0.5) μg/mL

**Q.** What about the MIC (B. ovatus MMX 3503; Bacteroides ovatus, MMX3503, B. ovatus MMX 3504 (so in the source), read-out: MIC) of the same compound?
**A.** > 16 µg/mL

**Q.** What about the MIC (S. pyogenes ATCC 49399; Streptococcus pyogenes, ATCC49399, S. pyogenes ATCC 49399, read-out: MIC) of the same compound?
**A.** 0.25 µg/mL (≈ 0.173 µM)

**Q.** With Penicillin as the compound, how does the “MIC, CLSI QC range” value [5] read?
**A.** (0.06-0.25) μg/mL

**Q.** For “piperacillin/tazobactam [piperacillin-tazobactam]”, which MIC (B. ovatus MMX 3503; [7]) is on record?
**A.** >16 µg/mL

**Q.** What about the MIC (S. pyogenes ATCC 49399; S. pyogenes ATCC 49399) of the same compound?
**A.** 0.06 µg/mL
